Data as given in publication PMC11858854, “In Vitro and In Vivo Assessment of Pharmacokinetic Profile of Peramivir in the Context of Inhalation Therapy” (Pharmaceuticals, 2025).

What was measured:
[1] = Pharmacokinetics study in rats (i.v. and tracheal nebulization, plasma); assay type: in vivo, rat; settings: for AUC(0–t) / AUC(0–t)/D / AUC(0–∞) / Cmax or C0 / Cmax/D / MRT(0–t) / MRT(0–∞) / T1/2 / Tmax / Cl / Vss / Vz: rat plasma, Mean ± SD, n = 6
Experimental: Pharmacokinetic studies were performed on rats to examine the effects of two distinct routes of administration: intravenous (i.v.) and tracheal nebulization (i.t.). The two administration routes were established to provide different doses, with six SD rats randomly assigned and weighed for each route.
The intravenous group consisted of rats that were randomly allocated into two subgroups, receiving dosages of 3 mg/kg and 6 mg/kg, respectively. The i.t. group consisted of rats that were randomly allocated into four groups receiving doses of 0.3 mg/kg, 1 mg/kg, 3 mg/kg, and 6 mg/kg. Prior to and at 0.033, 0.083, 0.25, 0.5, 1, 2, 4, 6, 8, 12, and 24 h post-administration, about 200 μL of blood was obtained via jugular vein catheterization and transferred to an EP tube containing heparin. Following centrifugation for 10 min at 5000× g, the plasma was isolated and preserved in a refrigerator at −40 °C until analysis.
Noncompartmental PK parameter estimates were determined from individual concentration-time data, using Phoenix WinNonlin, version 8.1 (Certara USA, Princeton, NJ, USA). And the linear relationship between AUC(0–t) and the corresponding dose was analyzed. t tests were performed on pharmacokinetic parameters under different dosing regimens to analyse the differences in drug exposure in rats.

[2] = test system: NCI-H441/dTHP co-culture model; assay: Bidirectional transport, NCI-H441/dTHP co-culture model; assay type: in vitro ADME, human; settings: NCI-H441/dTHP, 2 μM
Experimental: THP-1 cells were cultured in RPMI-1640 medium (Gibco, Thermo, CA, USA) supplemented with 10% FBS, PS (100 U/mL), and β-Mer (0.05 mM) at 37 °C in a humidified 5% CO2 incubator, and the medium was changed every other day. THP-1 cells were seeded at 4 × 10^5 cells/mL in six-well plates and induced for 48 h by adding medium containing a final concentration of 100 ng/mL PMA.
Then, the differentiated cells were seeded at 5 × 10^4 cells/well on the surface of NCI-H441 cells 10 days after air–liquid culture and continued to co-culture for 24 h.
We removed the liquid from the apical and basolateral of the Transwell, rinsed the cells three times with a buffer containing HBSS, 10 mM Hepes, and 0.1% BSA (Buffer A), and then added Buffer A (100 µL for the apical side and 600 µL for the basolateral side) for pre-incubation for 30 min at 37 °C. For the transport studies in the apical to basolateral (A-B) direction, 100 μL of pre-warmed test solution (Buffer A containing 2 µM positive control drugs or peramivir) was added to the apical side, while 600 μL of pre-warmed assay buffer, a buffer containing HBSS, 10 mM Hepes, and 1% BSA (Buffer B), was added to the basolateral compartment.

## CCC(CC)[C@H](NC(C)=O)[C@@H]1[C@H](O)[C@@H](C(=O)O)C[C@H]1N=C(N)N [Peramivir]
[1]; i.t. 0.3 mg/kg
  AUC(0–t): 405.17 ± 56.59 ng·h/mL
  AUC(0–t)/D: 1350.57 ± 188.64 kg·ng·h/mL/mg
  AUC(0–∞): 407.71 ± 56.59 ng·h/mL
  Cmax or C0: 204.67 ± 80.82 ng/mL
  Cmax/D: 682.22 ± 269.38 kg·ng/mL/mg
  MRT(0–t): 1.62 ± 0.31 h
  MRT(0–∞): 1.67 ± 0.33 h
  T1/2: 1.07 ± 0.22 h
  Tmax: 0.37 ± 0.38 h
[1]; i.t. 1 mg/kg
  AUC(0–t): 1279.25 ± 93.59 ng·h/mL
  AUC(0–t)/D: 1279.25 ± 93.59 kg·ng·h/mL/mg
  AUC(0–∞): 1291.03 ± 92.89 ng·h/mL
  Cmax or C0: 544.17 ± 215.23 ng/mL
  Cmax/D: 544.17 ± 215.23 kg·ng/mL/mg
  MRT(0–t): 2.08 ± 0.69 h
  MRT(0–∞): 2.32 ± 1.07 h
  T1/2: 4.10 ± 1.69 h
  Tmax: 0.67 ± 0.40 h
[1]; i.t. 3 mg/kg
  AUC(0–t): 4364.35 ± 583.02 ng·h/mL
  AUC(0–t)/D: 1454.78 ± 194.34 kg·ng·h/mL/mg
  AUC(0–∞): 4673.22 ± 567.78 ng·h/mL
  Cmax or C0: 2303.33 ± 1523.96 ng/mL
  Cmax/D: 767.78 ± 507.99 kg·ng/mL/mg
  MRT(0–t): 3.15 ± 0.66 h
  MRT(0–∞): 8.26 ± 4.04 h
  T1/2: 27.20 ± 9.67 h
  Tmax: 0.29 ± 0.36 h
[1]; i.t. 6 mg/kg
  AUC(0–t): 8479.33 ± 883.87 ng·h/mL
  AUC(0–t)/D: 1413.22 ± 147.31 kg·ng·h/mL/mg
  AUC(0–∞): 8852.22 ± 897.97 ng·h/mL
  Cmax or C0: 3866.00 ± 2454.21 ng/mL
  Cmax/D: 644.33 ± 409.04 kg·ng/mL/mg
  MRT(0–t): 3.41 ± 1.08 h
  MRT(0–∞): 5.70 ± 1.84 h
  T1/2: 17.73 ± 2.85 h
  Tmax: 0.29 ± 0.39 h
[1]; i.v. 3 mg/kg
  AUC(0–t): 3765.02 ± 247.43 ng·h/mL
  AUC(0–t)/D: 1255.00 ± 82.48 kg·ng·h/mL/mg
  AUC(0–∞): 3773.97 ± 245.49 ng·h/mL
  Cl: 13.296 ± 0.8863 mL/min/kg
  Cmax or C0: 12,705.55 ± 1264.79 ng/mL
  MRT(0–t): 0.59 ± 0.06 h
  MRT(0–∞): 0.62 ± 0.06 h
  T1/2: 2.11 ± 1.25 h
  Vss: 0.49811 ± 0.0581 L/kg
  Vz: 2.46265 ± 1.56916 L/kg
[1]; i.v. 6 mg/kg
  AUC(0–t): 6048.04 ± 635.88 ng·h/mL
  AUC(0–t)/D: 1008.01 ± 105.98 kg·ng·h/mL/mg
  AUC(0–∞): 6060.92 ± 637.85 ng·h/mL
  Cl: 16.654 ± 1.7818 mL/min/kg
  Cmax or C0: 22,731.79 ± 5543.47 ng/mL
  MRT(0–t): 0.47 ± 0.06 h
  MRT(0–∞): 0.51 ± 0.07 h
  T1/2: 3.07 ± 0.61 h
  Vss: 0.47267 ± 0.06358 L/kg
  Vz: 4.43299 ± 1.0131 L/kg
[1]; rat, equivalent doses
  increase of mean residence time (MRT), inhaled vs intravenous: nearly tenfold
[1]; rat, following inhalation
  time of peak plasma concentration: approximately 30 min
[1]; rat, inhalation vs intravenous
  bioavailability: exceeding 100%
[1]; rat, intratracheal, dose range 0.3 mg/kg to 6 mg/kg
  dose linearity of AUC and Cmax: linear pharmacokinetics
[2]
  ER: 0.75
[2]; Mean ± SD, n = 3
  Papp A-B: 1.19 ± 0.16 ×10−6 cm/s
  Papp B-A: 0.9 ± 0.17 ×10−6 cm/s
